Assay results as given in US9045445B2, “Glycine transporter-1 inhibitors, methods of making them, and uses thereof” (Albany Molecular Research, Inc., priority 2010, dated 2015).
Counter-ions that a name gives are not always drawn. Like-named read-outs stand apart in the source and are kept apart here.

What was measured:
[1] = molecular target: T1, glycine transporter-2 (GlyT-2) (Homo sapiens, UniProt Q9Y345); experiment: [14C]glycine uptake assay in HEK-GlyT-2 transfected cells; assay type: cell-based; conditions: HEK-GlyT-2 cells
T1 construct: expressed in transfected cells
T1 sequence (Q9Y345 1-797): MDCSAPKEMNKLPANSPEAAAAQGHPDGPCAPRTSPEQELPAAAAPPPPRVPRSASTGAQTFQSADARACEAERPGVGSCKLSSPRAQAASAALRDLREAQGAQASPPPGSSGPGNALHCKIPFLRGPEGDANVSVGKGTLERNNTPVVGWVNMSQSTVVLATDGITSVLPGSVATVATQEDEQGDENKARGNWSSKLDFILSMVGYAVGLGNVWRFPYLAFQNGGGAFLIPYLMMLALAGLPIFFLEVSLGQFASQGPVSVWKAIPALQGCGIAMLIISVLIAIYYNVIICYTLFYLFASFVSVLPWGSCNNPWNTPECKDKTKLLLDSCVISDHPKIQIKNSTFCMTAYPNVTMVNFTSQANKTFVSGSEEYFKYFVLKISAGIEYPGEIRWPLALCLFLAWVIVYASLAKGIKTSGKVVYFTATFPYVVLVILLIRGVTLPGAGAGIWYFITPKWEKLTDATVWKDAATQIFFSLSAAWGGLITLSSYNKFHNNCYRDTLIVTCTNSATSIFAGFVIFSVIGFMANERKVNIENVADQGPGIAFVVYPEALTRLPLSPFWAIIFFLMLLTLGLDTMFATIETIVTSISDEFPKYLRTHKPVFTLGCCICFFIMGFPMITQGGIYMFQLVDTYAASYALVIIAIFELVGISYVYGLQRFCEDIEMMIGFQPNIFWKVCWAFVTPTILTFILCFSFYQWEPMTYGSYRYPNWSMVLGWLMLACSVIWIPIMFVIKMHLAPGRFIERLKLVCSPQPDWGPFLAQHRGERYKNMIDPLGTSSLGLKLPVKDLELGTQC

[2] = molecular target: T2, glycine transporter-1 (GlyT-1) (Homo sapiens, UniProt P48067); experiment: [14C]glycine uptake assay in JAR cells endogenously expressing GlyT-1 (scintillation proximity); assay type: cell-based
T2 construct: JAR cells (ATCC#HTB-144), which endogenously express GlyT-1; host or cells: JAR human choriocarcinoma cells
T2 sequence (P48067 1-706): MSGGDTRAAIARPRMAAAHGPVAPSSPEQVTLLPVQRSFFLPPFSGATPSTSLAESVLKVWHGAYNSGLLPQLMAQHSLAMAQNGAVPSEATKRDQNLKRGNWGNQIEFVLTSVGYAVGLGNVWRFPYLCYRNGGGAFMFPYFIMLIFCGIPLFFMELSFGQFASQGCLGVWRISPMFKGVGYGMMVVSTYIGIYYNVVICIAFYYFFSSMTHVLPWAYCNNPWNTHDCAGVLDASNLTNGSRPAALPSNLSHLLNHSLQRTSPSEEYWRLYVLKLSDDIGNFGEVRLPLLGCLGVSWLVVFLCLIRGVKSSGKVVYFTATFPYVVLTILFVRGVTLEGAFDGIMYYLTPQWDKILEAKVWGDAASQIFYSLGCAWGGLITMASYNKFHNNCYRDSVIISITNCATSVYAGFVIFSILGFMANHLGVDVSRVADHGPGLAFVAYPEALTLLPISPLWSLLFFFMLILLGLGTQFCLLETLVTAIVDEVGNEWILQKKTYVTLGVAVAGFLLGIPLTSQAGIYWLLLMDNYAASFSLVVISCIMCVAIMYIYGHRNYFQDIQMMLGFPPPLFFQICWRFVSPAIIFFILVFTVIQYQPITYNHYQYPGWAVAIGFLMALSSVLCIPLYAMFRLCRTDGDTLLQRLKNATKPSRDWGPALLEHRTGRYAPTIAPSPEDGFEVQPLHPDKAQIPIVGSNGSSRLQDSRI
Method in brief: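 Human choriocarcinoma JAR cells (endogenous GlyT-1) attached overnight, then pre-incubated 10 min at room temperature with compound in pH 7.4 Hepes uptake buffer containing 5 mM alanine and 0.75% DMSO. Uptake of 5 μM [14C]glycine over 3 h at 37 °C read by scintillation proximity; IC50 from four-parameter fit of nine-point curves.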

[3] = JAR cells, [14C]glycine 5 μM, 3 hour incubation, read-out: GlyT-1 IC50

Row | Structure (SMILES) | IC50 [1] | IC50 [2, 3] | IC50 ([2]; GlyT-1 IC50 (nM))
1 | CCCS(=O)(=O)N1CCN(C2(CNC(=O)c3ccc(F)cc3Cl)CCCCC2)CC1 [compound 12, 2-Chloro-4-fluoro-N-((1-(4-(propylsulfonyl)piperazin-1-yl)cyclohexyl)methyl) benzamide Hydrochloride] | > 75000 nM | 63 nM | –
2 | CCCS(=O)(=O)N1CCN(C2(CNC(=O)Cc3ccc(Cl)cc3)CCCCC2)CC1 [compound 13, 2-(4-Chlorophenyl)-N-((1-(4-(propylsulfonyl)piperazin-1-yl)cyclohexyl)methyl) acetamide Hydrochloride] | > 75000 nM | 1270 nM | –
3 | CCCS(=O)(=O)N1CCN(C2(CNC(=O)c3ccc(F)cc3)CCCCC2)CC1 [compound 15, 4-Fluoro-N-((1-(4-(propylsulfonyl)piperazin-1-yl)cyclohexyl)methyl) benzamide Hydrochloride] | > 75000 nM | 786 nM | –
4 | CCCS(=O)(=O)N1CCN(C2(CNC(=O)c3ccc(C#N)cc3)CCCCC2)CC1 [compound 17, 4-Cyano-N-((1-(4-(propylsulfonyl)piperazin-1-yl)cyclohexyl)methyl) benzamide Hydrochloride] | > 75000 nM | 647 nM | –
5 | CCCS(=O)(=O)N1CCN(C2(CNC(=O)c3ccc(Br)cc3C)CCCCC2)CC1 [compound 18, 4-Bromo-2-methyl-N-((1-(4-(propylsulfonyl)piperazin-1-yl)cyclohexyl)methyl) benzamide Hydrochloride] | > 75000 nM | 28 nM | –
6 | CCCS(=O)(=O)N1CCN(C2(CNC(=O)c3c(OC)cc(F)cc3SC)CCCCC2)CC1 [compound 20, 4-Fluoro-2-methoxy-6-(methylthio)-N-((1-(4-(propylsulfonyl)piperazin-1-yl)cyclohexyl)methyl)benzamide Hydrochloride] | > 75000 nM | – | 6 nM
7 | CCCS(=O)(=O)N1CCN(C2(CNC(=O)c3c(OC)cc(C(F)(F)F)cc3C(F)(F)F)CCCCC2)CC1 [compound 21, 2-Methoxy-N-((1(1-(4-(propylsulfonyl)piperazin-1-yl)cyclohexyl)methyl)-4,6-bis(trifluoromethyl)benzamide Hydrochloride] | 39000 nM | 4 nM | –
8 | CCCS(=O)(=O)N1CCN(C2(CNC(=O)c3cccc(C(F)(F)F)c3Cl)CCCCC2)CC1 [compound 22, 2-Chloro-N-((1-(4-(propylsulfonyl)piperazin-1-yl)cyclohexyl)methyl)-3-(trifluoromethyl) benzamide Hydrochloride] | 41300 nM | – | 77 nM
9 | CCCS(=O)(=O)N1CCN(C2(CNC(=O)c3cccc(OC)c3)CCCCC2)CC1 [compound 29, 3-Methoxy-N-((1-(4-(propylsulfonyl)piperazin-1-yl)cyclohexyl)methyl) benzamide Hydrochloride] | > 75000 nM | 766 nM | –
10 | CCCS(=O)(=O)N1CCN(C2(CNC(=O)c3ccc(C)cc3C)CCCCC2)CC1 [compound 30, 2,4-Dimethyl-N-((1-(4-(propylsulfonyl)piperazin-1-yl)cyclohexyl)methyl) benzamide Hydrochloride] | > 75000 nM | 79 nM | –
11 | CCCS(=O)(=O)N1CCN(C2(CNC(=O)c3cc(Cl)ccc3Cl)CCCCC2)CC1 [compound 32, 2,5-Dichloro-N-((1-(4-(propylsulfonyl)piperazin-1-yl)cyclohexyl)methyl) benzamide Hydrochloride] | > 75000 nM | 71 nM | –
12 | CCCS(=O)(=O)N1CCN(C2(CNC(=O)c3ccc(-c4ccccc4)cc3)CCCCC2)CC1 [compound 38, N-((1-(4-(Propylsulfonyl)piperazin-1-yl)cyclohexyl)methyl) biphenyl-4-carboxamide Hydrochloride] | 1400 nM | 172 nM | –
13 | CCCS(=O)(=O)N1CCN(C2(CNC(=O)c3ccc(F)cc3F)CCCCC2)CC1 [compound 39, 2,4-Difluoro-N-((1-(4-(propylsulfonyl)piperazin-1-yl)cyclohexyl)methyl) benzamide Hydrochloride] | ≥ 75000 nM | 132 nM | –
14 | CCCS(=O)(=O)N1CCN(C2(CNC(=O)c3c(F)cccc3OC)CCCCC2)CC1 [compound 44, 2-Fluoro-6-methoxy-N-((1-(4-(propyl-sulfonyl)piperazin-1-yl)cyclohexyl)methyl) benzamide Hydrochloride] | > 75000 nM | 17 nM | –
15 | CCCS(=O)(=O)N1CCN(C2(CNC(=O)c3ccc(F)cc3OC)CCCCC2)CC1 [compound 46, 4-Fluoro-2-methoxy-N-((1-(4-(propyl-sulfonyl)piperazin-1-yl)cyclohexyl)methyl) benzamide Hydrochloride] | > 75000 nM | 357 nM | –

More lines, main results first:

Row | IC50 [1] | IC50 [2, 3] | Structure (SMILES) | IC50 ([2]; GlyT-1 IC50 (nM))
16 | 39000 nM | 15 nM | CCCS(=O)(=O)N1CCN(C2(CNC(=O)c3c(C)cc(F)cc3OC)CCCCC2)CC1 [compound 19, 4-Fluoro-2-methoxy-6-methyl-N-((1-(4-(propyl-sulfonyl)piperazin-1-yl)cyclohexyl)methyl) benzamide Hydrochloride] | –
17 | 61900 nM | 1140 nM | CCCS(=O)(=O)N1CCN(C2(CNC(=O)c3ccc(OC)cc3)CCCCC2)CC1 [compound 23, 4-Methoxy-N-((1-(4-(propylsulfonyl)piperazin-1-yl)cyclohexyl)methyl) benzamide Hydrochloride] | –
18 | > 75000 nM | 767 nM | CCCS(=O)(=O)N1CCN(C2(CNC(=O)c3ccc(C)cc3)CCCCC2)CC1 [compound 25, 4-Methyl-N-((1-(4-(propylsulfonyl)piperazin-1-yl)cyclohexyl)methyl) benzamide Hydrochloride] | –
19 | 635 nM | 549 nM | CCCS(=O)(=O)N1CCN(C2(CNC(=O)c3ccc(OCc4ccccc4)cc3)CCCCC2)CC1 [compound 27, 4-(Benzyloxy)-N-((1-(4-(propylsulfonyl)piperazin-1-yl)cyclohexyl)methyl) benzamide Hydrochloride] | –
20 | > 75000 nM | 523 nM | CCCS(=O)(=O)N1CCN(C2(CNC(=O)c3cccc(C(F)(F)F)c3)CCCCC2)CC1 [compound 28, N-((1-(4-(Propylsulfonyl)piperazin-1-yl)cyclohexyl)methyl)-3-(trifluoromethyl) benzamide Hydrochloride] | –
21 | > 75000 nM | 39 nM | CCCS(=O)(=O)N1CCN(C2(CNC(=O)c3c(C)cc(C)cc3C)CCCCC2)CC1 [compound 36, 2,4,6-Trimethyl-N-((1-(4-(propylsulfonyl)piperazin-1-yl)cyclohexyl)methyl) benzamide Hydrochloride] | –
22 | > 75000 nM | 71 nM | CCCS(=O)(=O)N1CCN(C2(CNC(=O)c3c(N)cccc3F)CCCCC2)CC1 [compound 41, 2-Amino-6-fluoro-N-((1-(4-(propylsulfonyl)piperazin-1-yl)cyclohexyl)methyl) benzamide Hydrochloride] | –
23 | > 35000 nM | 118 nM | CCCS(=O)(=O)N1CCN(C2(CNC(=O)c3ccccc3C)CCCCC2)CC1 [compound 42, 2-Methyl-N-((1-(4-(propylsulfonyl)piperazin-1-yl)cyclohexyl)methyl) benzamide Hydrochloride] | –
24 | > 75000 nM | 322 nM | CCCS(=O)(=O)N1CCN(C2(CNC(=O)c3ccc(Cl)cc3OC)CCCCC2)CC1 [compound 45, 4-Chloro-2-methoxy-N-((1-(4-(propyl-sulfonyl)piperazin-1-yl)cyclohexyl)methyl) benzamide Hydrochloride] | –
